Laboratory results reported in ChEMBL document CHEMBL5260845, “Flavone-based arylamides as potential anticancers: Design, synthesis and in vitro cell-based/cell-free evaluations” (2020).
Blank lines part the entries; values can stand above or below the molecule they belong to. Calls of active or inactive are those of the source. No cut-off for these calls is given here.

Experiments:
[1] = biological target: Mitogen-activated protein kinase kinase kinase 7 (Homo sapiens) (UniProt O43318); assay: Inhibition of TAK1 (unknown origin) at 10 uM by biochemical hotspot kinase assay relative to control
[2] = biological target: Tyrosine-protein kinase Lck (Homo sapiens) (UniProt P06239); assay: Inhibition of LCK (unknown origin) at 10 uM by biochemical hotspot kinase assay relative to control
[3] = biological target: Insulin receptor (Homo sapiens) (UniProt P06213); assay: Inhibition of INSR (unknown origin) at 10 uM by biochemical hotspot kinase assay
[4] = biological target: Ephrin type-A receptor 3 (Homo sapiens) (UniProt P29320); assay: Inhibition of EPHA3 (unknown origin) at 10 uM by biochemical hotspot kinase assay relative to control
[5] = biological target: Platelet-derived growth factor receptor alpha (Homo sapiens) (UniProt P16234); assay: Inhibition of PDGFRa (unknown origin) at 10 uM by biochemical hotspot kinase assay
[6] = biological target: CDK1/Cyclin E (Homo sapiens) (UniProt P06493+P24864); assay: Inhibition of CDK1/cyclin E (unknown origin) at 10 uM by biochemical hotspot kinase assay; assay type: protein-complex assay
[7] = biological target: Serine/threonine-protein kinase 3 (Homo sapiens) (UniProt Q13188); assay: Inhibition of MST2 (unknown origin) at 10 uM by biochemical hotspot kinase assay relative to control
[8] = biological target: Receptor tyrosine-protein kinase erbB-4 (Homo sapiens) (UniProt Q15303); assay: Inhibition of ERBB4 (unknown origin) at 10 uM by biochemical hotspot kinase assay relative to control
[9] = biological target: Cyclin-dependent kinase 2/cyclin A (Homo sapiens) (UniProt P24941+P20248+P78396); assay: Inhibition of CDK2/cyclin A (unknown origin) at 10 uM by biochemical hotspot kinase assay; assay type: protein-complex assay
[10] = biological target: Tyrosine-protein kinase BTK (Homo sapiens) (UniProt Q06187); assay: Inhibition of BTK (unknown origin) at 10 uM by biochemical hotspot kinase assay relative to control
[11] = biological target: Tyrosine-protein kinase JAK3 (Homo sapiens) (UniProt P52333); assay: Inhibition of JAK3 (unknown origin) at 10 uM by biochemical hotspot kinase assay
[12] = biological target: Mitogen-activated protein kinase kinase kinase kinase 1 (Homo sapiens) (UniProt Q92918); assay: Inhibition of HPK1 (unknown origin) at 10 uM by biochemical hotspot kinase assay
OVCAR-5 = assay: Antiproliferative activity against human OVCAR-5 cells assessed as inhibition of cell growth at 10 uM by SRB assay relative to control; assay type: functional
[13] = biological target: Phosphorylase b kinase gamma catalytic chain, liver/testis isoform (Homo sapiens) (UniProt P15735); assay: Inhibition of PHKG2 (unknown origin) at 10 uM by biochemical hotspot kinase assay relative to control
[14] = biological target: Tyrosine-protein kinase SYK (Homo sapiens) (UniProt P43405); assay: Inhibition of SYK (unknown origin) at 10 uM by biochemical hotspot kinase assay relative to control
[15] = biological target: Mitogen-activated protein kinase 3 (Homo sapiens) (UniProt P27361); assay: Inhibition of ERK1 (unknown origin) at 10 uM by biochemical hotspot kinase assay
[16] = biological target: Glycogen synthase kinase-3 beta (Homo sapiens) (UniProt P49841); assay: Inhibition of GSK3beta (unknown origin) at 10 uM by biochemical hotspot kinase assay relative to control
[17] = biological target: Mitogen-activated protein kinase 14 (Homo sapiens) (UniProt Q16539); assay: Inhibition of p38a (unknown origin) at 10 uM by biochemical hotspot kinase assay
[18] = biological target: TRAF2 and NCK-interacting protein kinase (Homo sapiens) (UniProt Q9UKE5); assay: Inhibition of TNIK (unknown origin) at 10 uM by biochemical hotspot kinase assay relative to control
[19] = biological target: Angiopoietin-1 receptor (Homo sapiens) (UniProt Q02763); assay: Inhibition of TIE2 (unknown origin) at 10 uM by biochemical hotspot kinase assay relative to control
[20] = biological target: Serine/threonine-protein kinase PLK2 (Homo sapiens) (UniProt Q9NYY3); assay: Inhibition of PLK2 (unknown origin) at 10 uM by biochemical hotspot kinase assay relative to control
[21] = biological target: Rho-associated protein kinase 1 (Homo sapiens) (UniProt Q13464); assay: Inhibition of ROCK1 (unknown origin) at 10 uM by biochemical hotspot kinase assay
HT-29 [22] = assay: Induction of cell cycle arrest in human HT-29 cells assessed as reduction in accumulation of cells at S phase at 2.5 to 10 uM incubated for 24 hrs by PI staining based analysis; assay type: functional; details: dose 2.5-10 µM
HT-29 [23] = assay: Antiproliferative activity against human HT-29 cells assessed as cell growth inhibition by SRB assay; assay type: functional
[24] = biological target: Mitogen-activated protein kinase 7 (Homo sapiens) (UniProt Q13164); assay: Inhibition of ERK5 (unknown origin) at 10 uM by biochemical hotspot kinase assay
[25] = biological target: Death-associated protein kinase 3 (Homo sapiens) (UniProt O43293); assay: Inhibition of DAPK3 (unknown origin) at 10 uM by biochemical hotspot kinase assay
[26] = biological target: Receptor-interacting serine/threonine-protein kinase 2 (Homo sapiens) (UniProt O43353); assay: Inhibition of RIPK2 (unknown origin) at 10 uM by biochemical hotspot kinase assay relative to control
[27] = biological target: Receptor-type tyrosine-protein kinase FLT3 (Homo sapiens) (UniProt P36888); assay: Inhibition of FLT3 (unknown origin) at 10 uM by biochemical hotspot kinase assay relative to control
[28] = biological target: Vascular endothelial growth factor receptor 2 (Homo sapiens) (UniProt P35968); assay: Inhibition of VEGFR2 (unknown origin) at 10 uM by biochemical hotspot kinase assay
[29] = biological target: Misshapen-like kinase 1 (Homo sapiens) (UniProt Q8N4C8); assay: Inhibition of MINK (unknown origin) at 10 uM by biochemical hotspot kinase assay relative to control
[30] = biological target: Serine/threonine-protein kinase ICK (Homo sapiens) (UniProt Q9UPZ9); assay: Inhibition of LCK2 (unknown origin) at 10 uM by biochemical hotspot kinase assay
[31] = biological target: Proto-oncogene tyrosine-protein kinase receptor Ret (Homo sapiens) (UniProt P07949); assay: Inhibition of RET (unknown origin) at 10 uM by biochemical hotspot kinase assay
[32] = biological target: Ephrin type-B receptor 4 (Homo sapiens) (UniProt P54760); assay: Inhibition of EPHB4 (unknown origin) at 10 uM by biochemical hotspot kinase assay
HT-29 [33] = assay: Induction of cell cycle arrest in human HT-29 cells assessed as accumulation of cells at G1 phase at 10 uM incubated for 24 hrs by PI staining based analysis (reference value: 40.3%); assay type: functional
M14 = assay: Antiproliferative activity against human M14 cells assessed as cell growth inhibition at 10 uM by SRB assay relative to control; assay type: functional
MCF7 = assay: Antiproliferative activity against estrogen receptor positive human MCF7 cells assessed as inhibition of cell growth at 10 uM by SRB assay; assay type: functional, cell-based
SK-MEL-2 = assay: Antiproliferative activity against human SK-MEL-2 cells assessed as cell growth inhibition at 10 uM by SRB assay relative to control; assay type: functional; details: Homo sapiens, SK-MEL-2, dose 10 µM

Chain of Misshapen-like kinase 1 (Homo sapiens) (Q8N4C8 whole entry, looked up): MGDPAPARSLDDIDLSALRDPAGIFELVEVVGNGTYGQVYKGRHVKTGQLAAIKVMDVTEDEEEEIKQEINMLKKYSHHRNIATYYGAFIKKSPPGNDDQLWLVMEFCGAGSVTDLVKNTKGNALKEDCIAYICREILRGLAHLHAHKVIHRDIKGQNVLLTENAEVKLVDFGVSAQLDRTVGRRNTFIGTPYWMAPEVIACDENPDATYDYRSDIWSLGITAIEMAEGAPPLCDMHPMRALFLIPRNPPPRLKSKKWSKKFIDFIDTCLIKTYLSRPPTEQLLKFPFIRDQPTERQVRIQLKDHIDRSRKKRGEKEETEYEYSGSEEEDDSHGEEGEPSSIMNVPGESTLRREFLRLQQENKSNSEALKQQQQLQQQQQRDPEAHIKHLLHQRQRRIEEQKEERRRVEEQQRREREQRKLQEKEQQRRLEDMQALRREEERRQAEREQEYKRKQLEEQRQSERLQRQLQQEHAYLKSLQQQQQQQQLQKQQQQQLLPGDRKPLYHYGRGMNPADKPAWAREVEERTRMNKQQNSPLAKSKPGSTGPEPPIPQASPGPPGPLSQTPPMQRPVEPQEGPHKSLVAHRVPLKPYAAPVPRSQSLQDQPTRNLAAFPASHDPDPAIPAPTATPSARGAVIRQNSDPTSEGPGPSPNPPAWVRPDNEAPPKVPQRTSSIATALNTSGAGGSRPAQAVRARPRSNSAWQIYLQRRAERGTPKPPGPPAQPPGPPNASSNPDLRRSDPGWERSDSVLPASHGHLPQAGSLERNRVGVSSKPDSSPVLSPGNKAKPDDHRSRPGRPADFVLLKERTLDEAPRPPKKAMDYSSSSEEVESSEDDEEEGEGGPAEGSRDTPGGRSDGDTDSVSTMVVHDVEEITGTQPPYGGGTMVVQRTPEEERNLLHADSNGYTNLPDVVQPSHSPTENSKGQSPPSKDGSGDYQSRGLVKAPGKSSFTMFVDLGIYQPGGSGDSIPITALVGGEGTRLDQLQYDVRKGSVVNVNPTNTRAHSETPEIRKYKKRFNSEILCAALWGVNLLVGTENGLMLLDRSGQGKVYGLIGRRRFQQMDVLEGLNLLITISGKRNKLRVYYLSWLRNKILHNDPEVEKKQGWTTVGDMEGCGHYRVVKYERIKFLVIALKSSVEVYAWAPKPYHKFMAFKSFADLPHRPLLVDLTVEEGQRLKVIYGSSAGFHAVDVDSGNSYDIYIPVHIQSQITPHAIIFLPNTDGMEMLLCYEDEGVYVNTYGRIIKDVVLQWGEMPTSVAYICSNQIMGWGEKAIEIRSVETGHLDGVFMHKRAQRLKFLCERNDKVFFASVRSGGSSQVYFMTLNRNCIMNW
Chain of Receptor-type tyrosine-protein kinase FLT3 (Homo sapiens) (P36888 whole entry): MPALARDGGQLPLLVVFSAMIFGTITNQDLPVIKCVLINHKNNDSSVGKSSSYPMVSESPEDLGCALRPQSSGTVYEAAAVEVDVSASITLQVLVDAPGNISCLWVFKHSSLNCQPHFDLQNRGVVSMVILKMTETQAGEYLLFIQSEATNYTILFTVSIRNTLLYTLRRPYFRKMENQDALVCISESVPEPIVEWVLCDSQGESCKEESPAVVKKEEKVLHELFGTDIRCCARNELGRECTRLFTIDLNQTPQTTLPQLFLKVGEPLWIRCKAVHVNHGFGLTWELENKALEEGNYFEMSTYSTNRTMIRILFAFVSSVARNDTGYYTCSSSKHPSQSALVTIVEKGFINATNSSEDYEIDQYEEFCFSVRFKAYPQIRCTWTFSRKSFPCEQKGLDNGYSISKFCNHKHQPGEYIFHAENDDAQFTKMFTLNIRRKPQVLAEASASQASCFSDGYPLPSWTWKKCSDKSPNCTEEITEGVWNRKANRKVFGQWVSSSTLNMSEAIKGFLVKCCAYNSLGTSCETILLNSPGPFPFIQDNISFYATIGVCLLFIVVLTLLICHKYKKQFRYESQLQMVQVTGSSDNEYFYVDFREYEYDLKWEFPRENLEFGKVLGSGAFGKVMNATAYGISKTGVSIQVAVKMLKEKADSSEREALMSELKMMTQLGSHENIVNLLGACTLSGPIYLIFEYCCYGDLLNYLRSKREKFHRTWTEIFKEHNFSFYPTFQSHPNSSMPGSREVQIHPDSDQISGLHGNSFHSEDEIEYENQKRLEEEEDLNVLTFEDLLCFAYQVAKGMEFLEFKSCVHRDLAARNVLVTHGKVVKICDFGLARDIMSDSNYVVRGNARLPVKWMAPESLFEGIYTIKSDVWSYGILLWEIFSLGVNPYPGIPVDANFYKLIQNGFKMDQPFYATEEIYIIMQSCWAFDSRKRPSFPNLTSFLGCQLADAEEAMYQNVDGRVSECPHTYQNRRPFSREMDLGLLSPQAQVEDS
Chain of TRAF2 and NCK-interacting protein kinase (Homo sapiens) (Q9UKE5 whole entry, looked up): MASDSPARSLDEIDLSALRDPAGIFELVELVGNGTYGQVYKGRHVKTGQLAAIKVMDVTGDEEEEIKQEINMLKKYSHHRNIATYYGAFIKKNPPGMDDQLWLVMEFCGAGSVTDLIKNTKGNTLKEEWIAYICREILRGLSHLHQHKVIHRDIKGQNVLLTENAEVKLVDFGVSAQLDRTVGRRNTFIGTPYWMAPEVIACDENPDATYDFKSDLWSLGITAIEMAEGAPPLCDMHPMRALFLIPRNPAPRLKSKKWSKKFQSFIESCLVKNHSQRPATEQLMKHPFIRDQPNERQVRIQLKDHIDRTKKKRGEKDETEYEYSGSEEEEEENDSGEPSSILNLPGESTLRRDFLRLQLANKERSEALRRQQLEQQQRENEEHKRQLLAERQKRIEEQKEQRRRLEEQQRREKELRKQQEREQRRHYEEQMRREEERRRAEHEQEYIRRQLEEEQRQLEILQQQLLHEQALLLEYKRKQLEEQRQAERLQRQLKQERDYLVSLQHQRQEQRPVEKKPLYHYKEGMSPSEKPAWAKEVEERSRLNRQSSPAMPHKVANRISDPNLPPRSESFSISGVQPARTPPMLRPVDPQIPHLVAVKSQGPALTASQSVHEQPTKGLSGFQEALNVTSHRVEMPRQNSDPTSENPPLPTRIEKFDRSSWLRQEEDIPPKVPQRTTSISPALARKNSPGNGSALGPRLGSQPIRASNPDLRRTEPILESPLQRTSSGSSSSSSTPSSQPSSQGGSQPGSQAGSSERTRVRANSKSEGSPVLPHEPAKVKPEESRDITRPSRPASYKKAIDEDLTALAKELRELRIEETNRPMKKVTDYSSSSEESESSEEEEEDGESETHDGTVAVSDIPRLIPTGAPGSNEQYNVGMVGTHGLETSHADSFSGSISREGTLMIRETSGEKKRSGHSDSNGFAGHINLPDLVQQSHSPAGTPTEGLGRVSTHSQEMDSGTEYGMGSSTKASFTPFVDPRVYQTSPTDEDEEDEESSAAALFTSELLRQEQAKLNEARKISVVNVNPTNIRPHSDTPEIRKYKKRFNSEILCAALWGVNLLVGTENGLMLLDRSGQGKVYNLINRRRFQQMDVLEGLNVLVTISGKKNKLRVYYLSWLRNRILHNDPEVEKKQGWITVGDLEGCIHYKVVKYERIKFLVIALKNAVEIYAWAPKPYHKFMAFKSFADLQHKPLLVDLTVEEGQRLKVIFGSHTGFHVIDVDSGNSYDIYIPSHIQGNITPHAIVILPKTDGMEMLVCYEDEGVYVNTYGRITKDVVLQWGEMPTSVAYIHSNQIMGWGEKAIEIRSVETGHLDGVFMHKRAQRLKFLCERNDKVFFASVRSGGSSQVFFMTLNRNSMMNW
Chain of Tyrosine-protein kinase JAK3 (Homo sapiens) (P52333 whole entry): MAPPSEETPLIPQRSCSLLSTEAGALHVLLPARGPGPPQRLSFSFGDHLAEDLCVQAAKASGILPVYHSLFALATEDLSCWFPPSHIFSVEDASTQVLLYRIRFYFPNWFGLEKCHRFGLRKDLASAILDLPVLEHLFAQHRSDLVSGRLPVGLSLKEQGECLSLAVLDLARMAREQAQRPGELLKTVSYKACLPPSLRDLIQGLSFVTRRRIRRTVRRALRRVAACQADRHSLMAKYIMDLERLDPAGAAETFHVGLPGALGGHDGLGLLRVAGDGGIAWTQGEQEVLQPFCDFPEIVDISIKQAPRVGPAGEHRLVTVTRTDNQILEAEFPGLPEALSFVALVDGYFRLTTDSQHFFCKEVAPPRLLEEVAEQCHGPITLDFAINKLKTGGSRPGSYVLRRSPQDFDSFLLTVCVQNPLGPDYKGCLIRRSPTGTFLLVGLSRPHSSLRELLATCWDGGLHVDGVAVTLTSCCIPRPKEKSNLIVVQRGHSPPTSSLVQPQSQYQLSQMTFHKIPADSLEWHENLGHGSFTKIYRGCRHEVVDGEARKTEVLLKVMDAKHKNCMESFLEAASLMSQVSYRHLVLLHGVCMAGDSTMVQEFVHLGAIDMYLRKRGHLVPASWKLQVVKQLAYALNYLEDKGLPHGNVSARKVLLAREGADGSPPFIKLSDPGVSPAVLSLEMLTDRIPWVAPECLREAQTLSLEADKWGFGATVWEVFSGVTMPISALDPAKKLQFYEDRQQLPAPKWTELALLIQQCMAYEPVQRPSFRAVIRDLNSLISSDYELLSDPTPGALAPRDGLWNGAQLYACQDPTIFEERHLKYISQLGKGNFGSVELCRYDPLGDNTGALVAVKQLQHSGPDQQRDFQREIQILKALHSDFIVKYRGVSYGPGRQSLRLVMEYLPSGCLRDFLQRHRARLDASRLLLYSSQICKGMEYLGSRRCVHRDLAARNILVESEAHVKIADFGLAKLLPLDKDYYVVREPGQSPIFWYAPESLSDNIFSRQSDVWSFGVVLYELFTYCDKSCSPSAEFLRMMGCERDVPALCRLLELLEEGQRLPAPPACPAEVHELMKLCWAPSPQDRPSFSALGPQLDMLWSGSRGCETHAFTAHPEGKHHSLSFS

inhibition [1]: 7.06%
inhibition [2]: 0.68%
inhibition [3]: inactive
inhibition [4]: 7.95%
inhibition [5]: inactive
inhibition [6]: inactive
inhibition [7]: 14.2%
inhibition [8]: 16%
inhibition [9]: inactive
inhibition [10]: 9.9%
inhibition [11]: inactive
inhibition [12]: inactive
inhibition [13]: 8.33%
inhibition [14]: 1.17%
inhibition [15]: inactive
inhibition [16]: 1.03%
inhibition [17]: inactive
inhibition [18]: 46.1%
inhibition [19]: 0.46%
inhibition [20]: 10.5%
inhibition [21]: inactive
GI50 (HT-29 [23]): 2550 nM
inhibition [24]: inactive
inhibition [26]: 36.1%
inhibition [27]: 10.7%
inhibition [28]: inactive
inhibition [29]: 41%
inhibition [30]: inactive
inhibition [31]: inactive
inhibition [32]: inactive
SMILES: COc1cc2oc(-c3cccc(C(=O)Nc4ccc(C)cc4)c3)cc(=O)c2c(OC)c1OC
inhibition at 10 µM (OVCAR-5): 51.8%
Activity (HT-29 [22]): Active
inhibition [25]: inactive
Activity (HT-29 [33]): 64%

SMILES: COc1cc2oc(-c3cccc(C(=O)Nc4ccc(Cl)cc4)c3)cc(=O)c2c(OC)c1OC
inhibition at 10 µM (M14): 107%
inhibition (MCF7): Active
inhibition at 10 µM (SK-MEL-2): 68.6%
